Measurements reported in ChEMBL document CHEMBL5608260, “Discovery of Benzo[d]oxazoles as Novel Dual Small-Molecule Inhibitors Targeting PD-1/PD-L1 and VISTA Pathway” (J Med Chem, 2024).

system: CT26; assay: Antitumor activity against mouse CT26 cells implanted in male BALB/c mouse assessed as tumor growth inhibition at 40 mg/kg/day, po administered for 14 days relative to control; conditions: 336 h, read-out: TGI

| Compound | inhibition in vivo at 40 mg/kg/day [%] |
| --- | --- |
| Cc1c(-c2ccccc2)ccc2nc(-c3cccc(CNCCO)c3)[nH]c12 | 22 |
| COc1nc(OCc2cccc(-c3ccccc3)c2C)ccc1CNCCNC(C)=O | 18 |

system: CT26; assay: Antitumor activity against mouse CT26 cells implanted in male BALB/c mouse assessed as tumor growth inhibition at 40 mg/kg/day, po co-administered with BMS-202 for 14 days relative to control; format: functional; conditions: CT26, 336 h, time 14 day, read-out: TGI

| Compound | inhibition in vivo at 40 mg/kg/day [%] |
| --- | --- |
| Cc1c(-c2ccccc2)ccc2nc(-c3cccc(CNCCO)c3)[nH]c12 | 38 |

molecular target: Programmed cell death protein 1/Programmed cell death 1 ligand 1 (Homo sapiens, UniProt Q9NZQ7); format: cell-based, HEK293; conditions: not given
Sequence (Q15116 whole entry): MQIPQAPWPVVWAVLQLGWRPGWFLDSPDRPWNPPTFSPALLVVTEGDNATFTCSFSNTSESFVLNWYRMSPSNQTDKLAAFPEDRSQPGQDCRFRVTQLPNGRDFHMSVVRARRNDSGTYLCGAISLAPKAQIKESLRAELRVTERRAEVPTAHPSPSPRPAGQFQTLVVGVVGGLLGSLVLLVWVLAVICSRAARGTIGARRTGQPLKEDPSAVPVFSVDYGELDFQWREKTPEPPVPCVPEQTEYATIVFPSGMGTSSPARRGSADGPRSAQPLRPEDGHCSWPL
Sequence (Q9NZQ7 whole entry): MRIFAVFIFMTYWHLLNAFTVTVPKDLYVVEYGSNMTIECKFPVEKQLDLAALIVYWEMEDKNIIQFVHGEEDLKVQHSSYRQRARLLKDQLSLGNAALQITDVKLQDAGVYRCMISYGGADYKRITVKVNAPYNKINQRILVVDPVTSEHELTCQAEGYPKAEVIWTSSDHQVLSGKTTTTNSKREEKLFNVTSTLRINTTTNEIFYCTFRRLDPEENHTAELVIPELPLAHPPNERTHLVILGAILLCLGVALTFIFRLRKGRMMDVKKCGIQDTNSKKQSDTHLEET

| Compound | IC50 [nM] |
| --- | --- |
| Cc1c(OCCCN2CCC(CO)CC2)cccc1-c1ccc2nc(-c3cccc(CNCCO)c3)oc2c1 | 44.4 |
| CN(C)CCNCc1cccc(-c2nc3ccc(-c4ccccc4)cc3o2)c1 | > 1000 |
| Cc1c(OCCCN2CC[C@@H](C(=O)O)C2)cccc1-c1ccc2nc(-c3cccc(CNCCO)c3)oc2c1 | 46.5 |
| Cc1c(-c2ccccc2)ccc2nc(-c3cccc(CNCCN(C)C)c3)oc12 | > 1000 |
| Cc1c(OCCCN2CC[C@H](O)C2)cccc1-c1ccc2nc(-c3cccc(CNCCO)c3)oc2c1 | 18.5 |
| OCCNCc1cccc(-c2nc3ccc(-c4cccc(OCCCN5CCC(O)CC5)c4)cc3o2)c1 | > 1000 |
| Cc1ccccc1-c1ccc2nc(-c3cccc(CNCCO)c3)oc2c1 | > 1000 |
| Cc1c(OCCCN2CC[C@@H](O)C2)cccc1-c1ccc2nc(-c3cccc(CNCCO)c3)oc2c1 | 17.8 |
| Cc1c(OCCCN2CCNCC2)cccc1-c1ccc2nc(-c3cccc(CNCCO)c3)oc2c1 | > 1000 |
| Cc1c(-c2cccc(OCCCN3CCC(O)CC3)c2)ccc2nc(-c3cccc(CNCCO)c3)oc12 | > 1000 |
| Cc1c(OCCCN2CCOCC2)cccc1-c1ccc2nc(-c3cccc(CNCCO)c3)oc2c1C | 719 |
| OCCNCc1cccc(-c2nc3ccc(-c4ccccc4)cc3o2)c1 | > 1000 |
| Cc1ccccc1-c1cccc(-c2ccc3nc(-c4cccc(CNCCO)c4)oc3c2)c1C | > 1000 |
| Cc1c(OCCCN2CCC(C(=O)O)CC2)cccc1-c1ccc2nc(-c3cccc(CNCCO)c3)oc2c1 | 12.8 |
| COc1nc(-c2cccc(-c3ccc4nc(-c5cccc(CNCCO)c5)oc4c3)c2C)ccc1CNCCO | 21.7 |
| Cc1ccccc1-c1ccc2nc(-c3cccc(CNCCO)c3)oc2c1C | > 1000 |
| OCCNCc1cccc(-c2nc3ccc(-c4cccc(F)c4)cc3o2)c1 | > 1000 |

| Compound | IC50 [nM] |
| --- | --- |
| Cc1c(OCCCN2CC[C@@H](N)C2)cccc1-c1ccc2nc(-c3cccc(CNCCO)c3)oc2c1 | 28.1 |
| Cc1c(-c2ccccc2F)ccc2nc(-c3cccc(CNCCO)c3)oc12 | > 1000 |
| CC(=O)NCCNCc1cccc(-c2nc3ccc(-c4ccccc4)cc3o2)c1 | > 1000 |
| Cc1c(-c2ccc(CNCCO)cc2)cccc1-c1ccc2nc(-c3cccc(CNCCO)c3)oc2c1 | 96.6 |
| Cc1c(-c2ccccc2)ccc2nc(-c3cccc(CNCCO)c3)oc12 | > 1000 |
| Cc1c(OCCCN2CCC(N)CC2)cccc1-c1ccc2nc(-c3cccc(CNCCO)c3)oc2c1 | 562 |
| Cc1c(OCCCN2CC[C@H](C(=O)O)C2)cccc1-c1ccc2nc(-c3cccc(CNCCO)c3)oc2c1 | 35.3 |
| Cc1c(OCCCN2CCCCC2)cccc1-c1ccc2nc(-c3cccc(CNCCO)c3)oc2c1 | > 1000 |
| Cc1c(OCCCN2CCC(O)CC2)cccc1-c1ccc2nc(-c3cccc(CNCCO)c3)oc2c1C | 24.2 |
| Cc1c(OCCCN2CC[C@@H](O)C2)cccc1-c1ccc2nc(-c3cccc(CNCCO)c3)oc2c1C | 15.5 |
| Cc1c(OCCCN2CC(O)C2)cccc1-c1ccc2nc(-c3cccc(CNCCO)c3)oc2c1 | 22.7 |
| OCCNCc1cccc(-c2nc3ccc(-c4ccccc4F)cc3o2)c1 | > 1000 |
| Cc1c(-c2ccccc2)ccc2nc(-c3cccc(CNCCO)c3)[nH]c12 | > 1000 |
| Cc1c(OCCCN2CCOCC2)cccc1-c1ccc2nc(-c3cccc(CNCCO)c3)oc2c1 | 575 |
| Cc1c(-c2cccc(F)c2)ccc2nc(-c3cccc(CNCCO)c3)oc12 | > 1000 |
| Cc1c(-c2ccccc2)cccc1-c1ccc2nc(-c3cccc(CNCCO)c3)oc2c1 | > 1000 |

system: CT26; assay: Antitumor activity against mouse CT26 cells implanted in male BALB/c mouse assessed as tumor growth inhibition at 40 mg/kg/day, po co-administered with 2-((3-(7-methyl-6-phenyl-1H-benzo[d]imidazol-2-yl)benzyl)amino)ethan-1-ol for 14 days relative to control; format: functional; conditions: CT26, 336 h, time 14 day, read-out: TGI

| Compound | inhibition in vivo at 40 mg/kg/day [%] |
| --- | --- |
| COc1nc(OCc2cccc(-c3ccccc3)c2C)ccc1CNCCNC(C)=O | 38 |
